Test results taken from patent EP4620956A1, “PARP1 INHIBITORS” (Zhejiang Yangli Pharmaceutical Technology Co., Ltd., priority 2022, dated 2024).

Legend:
PARP2 [1] = molecular target: T1, PARP2 (Homo sapiens, UniProt Q9UGN5); assay: Inhibition of PARP2 enzyme activity (chemiluminescence); format: biochemical
T1 construct: purchased BPS 80502

A549 WT = assay: Cellular PARylation inhibition, high-content imaging, A549 WT; format: cell-based; conditions: Homo sapiens, PARylation at the cellular level
Experimental: The inhibitory effect of the compounds on PARP1/PARP2 enzyme activity at the cellular level was detected using high-content imaging. A549 WT, PARP1-KO and PARP2-KO cell lines were established in-house, and the cells were revived. After the cells were stable, a sufficient number of cells were collected and 100 µL of the cell suspension was seeded into a 96-well plate. The next day, the example compounds with serially diluted concentrations were added. […] The plate was incubated for 1.5 hours (A549 WT and PARP2-KO cell lines) or 2 hours (PARP1-KO cell line). After removing the supernatant, 0.4 mM H2O2 was added and incubation was carried out for 10 minutes (A549 WT and PARP2-KO cell lines) or 1.5 mM H2O2 was added and incubation was carried out for 15 minutes (PARP1-KO cell line) to induce extensive cellular DNA damage. After removing the supernatant, the cells were fixed with 4% paraformaldehyde for 20 minutes, followed by treatment with 0.5% Triton X-100 for 20 minutes to increase the permeability of the cell membrane. After that, the cells were incubated with 3% BSA for 1 hour to prevent non-specific binding. […] The cell nuclei were stained for 30 minutes by adding 50 µL DAPI (invitrogen, R37606). After washing twice with PBS, images were acquired on OPERETTA CLS™ (PE) by scanning the cells under a 20x water objective lens in non-confocal mode, with 5 fields of view captured per well. […] The inhibition rate was calculated using the fluorescence values from the Max and Min wells, and the dose-response curve was fitted using the analysis software GraphPad Prism 5 to obtain the IC50 value of each compound for the enzyme activity.

PARP2 [2] = molecular target: T1, PARP2; assay: DNA trapping capability of PARP2 (HTRF); format: biochemical
PARP6 = molecular target: T2, PARP6 (Homo sapiens, UniProt Q2NL67); assay: Inhibition of PARP6 enzyme activity (chemiluminescence); format: biochemical
T2 construct: purchased BPS 80506
T2 sequence (Q2NL67 whole entry): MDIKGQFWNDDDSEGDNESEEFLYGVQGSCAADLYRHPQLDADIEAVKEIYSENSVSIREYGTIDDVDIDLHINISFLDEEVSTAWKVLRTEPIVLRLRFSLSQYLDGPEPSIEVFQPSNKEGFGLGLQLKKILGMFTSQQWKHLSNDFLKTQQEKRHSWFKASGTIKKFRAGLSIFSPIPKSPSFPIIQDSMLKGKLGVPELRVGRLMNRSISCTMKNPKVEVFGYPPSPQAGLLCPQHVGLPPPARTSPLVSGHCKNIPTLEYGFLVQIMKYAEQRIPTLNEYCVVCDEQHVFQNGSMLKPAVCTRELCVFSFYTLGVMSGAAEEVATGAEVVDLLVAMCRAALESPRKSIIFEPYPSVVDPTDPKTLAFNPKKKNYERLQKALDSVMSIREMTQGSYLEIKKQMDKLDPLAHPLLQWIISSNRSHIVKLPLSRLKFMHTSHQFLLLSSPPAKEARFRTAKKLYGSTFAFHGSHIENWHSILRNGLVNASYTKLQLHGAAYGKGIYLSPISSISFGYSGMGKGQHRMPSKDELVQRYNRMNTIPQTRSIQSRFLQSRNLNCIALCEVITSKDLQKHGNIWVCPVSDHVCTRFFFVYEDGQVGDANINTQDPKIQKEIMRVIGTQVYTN

DLD-1 WT = assay: Anti-proliferative activity (CellTiter-Glo, 7 days), DLD-1 WT; format: cell-based, human
Experimental: The anti-proliferation experiment of the compounds on tumour cells adopted the most widely used ATP concentration-based detection method at present. MDA-MB-231 and MDA-MB-436 cell lines were obtained from ATCC, DLD-1 human colourectal adenocarcinoma epithelial cells and DLD-1 BRCA2^-/- cells were obtained from Horizon, and the cells were revived. After the cells were stable, the cells were collected. When the viable cell count exceeded 90%, 450-500 cells were seeded into a 384-well plate. The next day, the example compounds with serially diluted concentrations were added. Only buffer was added to the Max well, and 50 µM AZD2281 was added to the Min well. The plate was incubated for 7 days, and on the eighth day, CellTiter-Glo® reagent (Promega, G7573) was added. The plate was incubated at room temperature for 30 minutes, and the values were read on Envision (PE). The inhibition rate was calculated using the fluorescence values from the Max and Min wells, and the dose-response curve was fitted using the analysis software GraphPad Prism 5 to obtain the IC50 value of each compound for the enzyme activity.

DLD-1 BRCA2^-/- = assay: Anti-proliferative activity (CellTiter-Glo, 7 days), DLD-1 BRCA2-/-; format: cell-based, human
PARP1 = molecular target: T3, PARP1 (Homo sapiens, UniProt P09874); assay: PARP1-DNA trapping, fluorescence polarization (FP); format: biochemical
T3 construct: purchased BPS 80501
T3 sequence (P09874 whole entry): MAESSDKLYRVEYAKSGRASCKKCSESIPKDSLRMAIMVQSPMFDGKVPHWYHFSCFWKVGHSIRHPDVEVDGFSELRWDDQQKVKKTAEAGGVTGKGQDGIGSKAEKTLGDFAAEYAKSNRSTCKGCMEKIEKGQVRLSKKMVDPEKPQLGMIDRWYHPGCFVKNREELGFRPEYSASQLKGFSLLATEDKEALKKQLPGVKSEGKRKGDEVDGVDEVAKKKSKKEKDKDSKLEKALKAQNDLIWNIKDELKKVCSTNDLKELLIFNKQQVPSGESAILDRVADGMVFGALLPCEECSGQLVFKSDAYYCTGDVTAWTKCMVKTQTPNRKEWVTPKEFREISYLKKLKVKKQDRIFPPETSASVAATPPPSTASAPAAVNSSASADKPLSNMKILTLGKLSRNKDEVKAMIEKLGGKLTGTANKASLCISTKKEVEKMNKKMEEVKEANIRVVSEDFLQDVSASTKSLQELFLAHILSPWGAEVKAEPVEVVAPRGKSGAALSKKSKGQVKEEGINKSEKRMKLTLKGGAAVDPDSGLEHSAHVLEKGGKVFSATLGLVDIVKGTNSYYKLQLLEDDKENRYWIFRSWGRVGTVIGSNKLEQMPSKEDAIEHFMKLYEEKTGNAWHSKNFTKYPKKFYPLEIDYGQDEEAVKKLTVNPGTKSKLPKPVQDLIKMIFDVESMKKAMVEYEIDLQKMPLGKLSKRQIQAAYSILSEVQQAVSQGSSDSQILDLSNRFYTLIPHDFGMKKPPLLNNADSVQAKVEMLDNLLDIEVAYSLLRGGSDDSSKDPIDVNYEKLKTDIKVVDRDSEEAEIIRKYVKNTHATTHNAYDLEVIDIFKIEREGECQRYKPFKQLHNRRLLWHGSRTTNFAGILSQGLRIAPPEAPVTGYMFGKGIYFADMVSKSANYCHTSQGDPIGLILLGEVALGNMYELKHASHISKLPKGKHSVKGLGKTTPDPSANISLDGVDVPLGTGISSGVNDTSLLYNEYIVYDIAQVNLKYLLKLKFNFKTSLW

PARP5a = molecular target: T4, PARP5a (Homo sapiens, UniProt O95271); assay: Inhibition of PARP5a enzyme activity (chemiluminescence); format: biochemical
T4 construct: purchased BPS 80504
T4 sequence (O95271 1001-1327): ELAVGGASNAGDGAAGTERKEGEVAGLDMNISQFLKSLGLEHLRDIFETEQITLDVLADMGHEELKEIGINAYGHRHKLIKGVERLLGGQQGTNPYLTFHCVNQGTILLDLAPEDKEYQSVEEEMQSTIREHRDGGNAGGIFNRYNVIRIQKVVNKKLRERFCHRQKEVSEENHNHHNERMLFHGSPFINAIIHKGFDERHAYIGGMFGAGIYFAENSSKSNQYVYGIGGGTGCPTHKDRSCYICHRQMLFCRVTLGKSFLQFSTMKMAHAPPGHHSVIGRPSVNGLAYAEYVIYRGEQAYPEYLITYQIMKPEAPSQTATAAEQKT

[3] = ratio relative to the PARP1 enzyme activity

T1 sequence (Q9UGN5 whole entry): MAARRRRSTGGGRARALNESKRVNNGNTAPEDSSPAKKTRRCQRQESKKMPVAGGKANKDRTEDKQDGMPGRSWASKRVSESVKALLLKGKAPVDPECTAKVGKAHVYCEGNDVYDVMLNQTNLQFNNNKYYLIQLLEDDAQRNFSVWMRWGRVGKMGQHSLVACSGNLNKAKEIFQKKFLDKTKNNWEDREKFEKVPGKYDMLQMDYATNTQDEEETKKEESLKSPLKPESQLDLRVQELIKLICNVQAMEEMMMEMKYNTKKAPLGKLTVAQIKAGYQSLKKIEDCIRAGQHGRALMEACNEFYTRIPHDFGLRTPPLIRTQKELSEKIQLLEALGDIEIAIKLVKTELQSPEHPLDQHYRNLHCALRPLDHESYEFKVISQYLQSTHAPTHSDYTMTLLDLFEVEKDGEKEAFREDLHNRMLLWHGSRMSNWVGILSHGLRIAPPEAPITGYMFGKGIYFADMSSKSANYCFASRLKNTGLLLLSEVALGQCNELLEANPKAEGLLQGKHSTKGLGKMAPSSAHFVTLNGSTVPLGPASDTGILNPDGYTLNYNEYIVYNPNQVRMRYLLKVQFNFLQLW

`[2H]C([2H])([2H])NC(=O)c1ccc(N2CCN(Cc3cnc4c(N)c(CC)c(=O)[nH]c4c3)CC2)c(F)n1` [Example 4, 5-(4-((8-Amino-7-ethyl-6-oxo-5,6-dihydro-1,5-naphthyridin-3-yl)methyl)piperazin-1-yl)-6-fluoro-N-(methyl-d3)picolinamide] gave an IC50 (PARP2 [1]) of 18.6 nM, an IC50 (A549 WT) of 5.2 nM and an EC50 (PARP2 [2]) of 382 nM. For the same compound, the IC50 (PARP6; enzyme activity) was > 10000 nM, the “PARP6 multiple vs PARP1” value (PARP6; [3]) was “∞” and the “inhibition on cell proliferation at the highest concentration” value (DLD-1 WT; BRCA2-normal DLD-1 cell line, 10 µM) was “no detectable inhibition”. The IC50 (DLD-1 WT; Homo sapiens, DLD-1, 168 h, BRCA2-normal, 7 days) was > 10000 nM, the “BRCA2 mutation/WT selectivity fold” value (DLD-1 BRCA2^-/-; DLD-1 WT vs DLD-1 BRCA2^-/-) was >2,178 fold and the IC50 (DLD-1 BRCA2^-/-; Homo sapiens, DLD-1, 168 h, BRCA2-mutated, 7 days) was 4.59 nM. For the same compound, the “capability to induce PARP1-DNA trapping higher than that of Olaparib” value (PARP1; 2-hour time point, relative to Olaparib) was 48 fold, the “PARP1-DNA trapping activity stronger than that of AZD5305” value (PARP1; 54-hour time point, relative to AZD5305) was 14 fold and the “time over which PARP1-DNA trapping activity could be maintained” value (PARP1; FP, PARP1) was “more than 54 hours”. For the same compound, the Bottom (PARP1; PARP1, 0.25 hour) was -8.7, the EC50 (PARP1; PARP1, 0.25 hour) was 3.11 nM and the Hillslope (PARP1; PARP1, 0.25 hour) was 2.8. The Top (PARP1; PARP1, 0.25 hour) was 108.7, the Bottom (PARP1; PARP1, 0.5 hour) was -6.3 and the EC50 (PARP1; PARP1, 0.5 hour) was 2.26 nM. For the same compound, the Hillslope (PARP1; PARP1, 0.5 hour) was 2.9, the Top (PARP1; PARP1, 0.5 hour) was 105.6 and the Bottom (PARP1; PARP1, 1 hour) was -4.2. The EC50 (PARP1; PARP1, 1 hour) was 2.58 nM, the Hillslope (PARP1; PARP1, 1 hour) was 3.1 and the Top (PARP1; PARP1, 1 hour) was 109.1. For the same compound, the Bottom (PARP1; PARP1, 2 hour) was -0.8, the EC50 (PARP1; PARP1, 2 hour) was 2.86 nM and the Hillslope (PARP1; PARP1, 2 hour) was 3.0. It also gave a Top (PARP1; PARP1, 2 hour) of 105.3, a Bottom (PARP1; PARP1, 4 hour) of -5.6 and an EC50 (PARP1; PARP1, 4 hour) of 2.99 nM. It also gave a Hillslope (PARP1; PARP1, 4 hour) of 2.4, a Top (PARP1; PARP1, 4 hour) of 106.8 and a Bottom (PARP1; PARP1, 8 hour) of -6.8. For the same compound, the EC50 (PARP1; PARP1, 8 hour) was 3.51 nM, the Hillslope (PARP1; PARP1, 8 hour) was 2.6 and the Top (PARP1; PARP1, 8 hour) was 107.2. The Bottom (PARP1; PARP1, 24 hour) was -4.4, the EC50 (PARP1; PARP1, 24 hour) was 3.97 nM and the Hillslope (PARP1; PARP1, 24 hour) was 1.5. For the same compound, the Top (PARP1; PARP1, 24 hour) was 79.2, the Bottom (PARP1; PARP1, 30 hour) was -8.8 and the EC50 (PARP1; PARP1, 30 hour) was 5.46 nM. For the same compound, the Hillslope (PARP1; PARP1, 30 hour) was 1.2, the Top (PARP1; PARP1, 30 hour) was 79.1 and the Bottom (PARP1; PARP1, 48 hour) was -5.6. The EC50 (PARP1; PARP1, 48 hour) was 4.58 nM, the Hillslope (PARP1; PARP1, 48 hour) was 2.0 and the Top (PARP1; PARP1, 48 hour) was 51.0. The Bottom (PARP1; PARP1, 54 hour) was -12.8, the EC50 (PARP1; PARP1, 54 hour) was 9.54 nM and the Hillslope (PARP1; PARP1, 54 hour) was 0.8. For the same compound, the Top (PARP1; PARP1, 54 hour) was 55.9, the IC50 (PARP5a; enzyme activity) was 4060 nM and the “PARP5a multiple vs PARP1” value (PARP5a; [3]) was 8,467.
